{
  "source": "patent US20200179294A1",
  "about": "“MANGANOPORPHYRIN-POLYPHENOL MULTILAYER CAPSULES AS RADICAL AND REACTIVE OXYGEN SPECIES SCAVENGERS” (THE UAB RESEARCH FOUNDATION, priority 2018, published 2020)",
  "test": "Ellipsometry of dry TA/MnP-PVPON films at pH 5 and pH 2.5 (film stability)",
  "format": "physicochemical",
  "method": "The stability of the MnP-PVPON/TA multilayers dried from pH=2.5 was examined since ionization of TA is minimized at this pH (below the pKa of TA), which could result in destabilization of the film.\nEllipsometry: Film thickness was measured using a M2000U spectroscopic ellipsometer (Woollam). Single-side polished silicon wafers 500-μm-thick (University Wafer) of 20 mm×50 mm were cleaned in a mixture of concentrated sulfuric acid and Nocromix (Godax Laboratories) for 24 hours, washed with DI water, dried with a stream of nitrogen (Airgas) and used immediately thereafter. First, a precursor layer of poly(ethyleneimine) (PEI, Sigma-Aldrich) was adsorbed onto the wafer surface from 1 mg mL^−1 PEI aqueous solution for 10 min. After that the deposition of TA, PVPON and MnP-PVPON onto silicon wafers coated with a PEI layer was performed using a 5-mL liquid flow-through cell (Woollam) at pH=5 and pH=7.2 (0.01 M phosphate buffer). The pH values of 0.01 M phosphate buffers were adjusted using 0.1 M HCl and NaOH aqueous solutions. Dry thickness measurements were performed between 400 and 1000 nm at 65, 70, and 75° angles of incidence, while wet thickness studies were monitored at 75° incidence angle. […] The thickness of silicon oxide was determined using known optical constants. […]",
  "data": [
    {"molecule": "O=C(OC[C@H]1O[C@@H](OC(=O)c2cc(O)c(O)c(OC(=O)c3cc(O)c(O)c(O)c3)c2)[C@H](OC(=O)c2cc(O)c(O)c(OC(=O)c3cc(O)c(O)c(O)c3)c2)[C@@H](OC(=O)c2cc(O)c(O)c(OC(=O)c3cc(O)c(O)c(O)c3)c2)[C@@H]1OC(=O)c1cc(O)c(O)c(OC(=O)c2cc(O)c(O)c(O)c2)c1)c1cc(O)c(O)c(OC(=O)c2cc(O)c(O)c(O)c2)c1", "note": "[TA, tannic acid]", "values": [
      {"measurement": "Layer thickness", "result": 1.8, "unit": "nm"},
      {"measurement": "Total thickness", "result": 4.1, "unit": "nm"}
    ]}
  ]
}
